From PubChem BioAssay AID296 (DTP/NCI, 2004)
Where “and” joins values, the source holds several entries; their conditions need not be identical. Identical values can stand only once. Records with an inconclusive call do not appear.

System: MX-1 breast xenograft, nude mice, tumor weight T/C
Experiment: NCI In Vivo Anticancer Drug Screen. Data for tumor model Human Mammary Carcinoma MX-1 Xenograft (intrarenal inoculation) in NU/NU Swiss (nude) mice
Conditions: endpoint: mean tumor weight change, higher = larger tumour
Outline: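 Antitumour effect measured in vivo against vehicle controls, expressed as T/C.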

[1] = dose: 600.0 mg/kg/injection, schedule: Q04DX003 (sc), vehicle: Klucel (hydroxypropylcellulose) (HPC)
[2] = dose: 1200.0 mg/kg/injection, schedule: Q04DX003 (sc), vehicle: Klucel (hydroxypropylcellulose) (HPC)
[3] = dose: 300.0 mg/kg/injection, schedule: Q04DX003 (sc), vehicle: Klucel (hydroxypropylcellulose) (HPC)

NCCc1cc(O)c(O)c(O)c1
T/C (dose: 100.0 mg/kg/injection, schedule: Q04DX003 (sc), vehicle: saline): 59 % of control
T/C (dose: 200.0 mg/kg/injection, schedule: Q04DX003 (sc), vehicle: saline): 150 % of control
T/C (dose: 400.0 mg/kg/injection, schedule: Q04DX003 (sc), vehicle: saline): 154 % of control
T/C (dose: 800.0 mg/kg/injection, schedule: Q04DX003 (sc), vehicle: saline): 72 % of control

O=c1[nH]c(=O)n(C2CC(O)C(CO)O2)cc1Br (centres undefined)
T/C [1]: 91 % of control
T/C [2]: 80 % of control
T/C (dose: 2400.0 mg/kg/injection, schedule: Q04DX003 (sc), vehicle: Klucel (hydroxypropylcellulose) (HPC)): 59 % of control
T/C (dose: 4800.0 mg/kg/injection, schedule: Q04DX003 (sc), vehicle: Klucel (hydroxypropylcellulose) (HPC)): 27 % of control

COC1OC(CO)C(O)C(NC(=O)N(C)N=O)C1O (centres undefined)
T/C (dose: 225.0 mg/kg/injection, schedule: Q04DX003 (sc), vehicle: saline): 45 % of control
T/C (dose: 900.0 mg/kg/injection, schedule: Q04DX003 (sc), vehicle: saline): 18 % of control and 20 % of control (2×)
T/C (dose: 1800.0 mg/kg/injection, schedule: Q04DX003 (sc), vehicle: saline): 3 % of control and 4 % of control

CC[C@@]1(O)C(=O)OCc2c1cc1n(c2=O)Cc2cc3cc(O)ccc3nc2-1
T/C (dose: 8.0 mg/kg/injection, schedule: Q04DX003 (sc), vehicle: saline): -98 % of control
T/C (dose: 16.0 mg/kg/injection, schedule: Q04DX003 (sc), vehicle: saline): -100 % of control
T/C (dose: 32.0 mg/kg/injection, schedule: Q04DX003 (sc), vehicle: saline): -100 % of control
T/C (dose: 32.0 mg/kg/injection, schedule: Q04DX003 (sc), vehicle: suspension in saline): -100 % of control
T/C (dose: 64.0 mg/kg/injection, schedule: Q04DX003 (sc), vehicle: saline): -100 % of control
T/C (dose: 64.0 mg/kg/injection, schedule: Q04DX003 (sc), vehicle: suspension in saline): -100 % of control
T/C (dose: 128.0 mg/kg/injection, schedule: Q04DX003 (sc), vehicle: suspension in saline): -100 % of control

O=C1C(O)=C(c2ccccc2)C(=O)C(O)=C1c1ccccc1
T/C (dose: 75.0 mg/kg/injection, schedule: Q04DX003 (sc), vehicle: saline): 118 % of control
T/C (dose: 150.0 mg/kg/injection, schedule: Q04DX003 (sc), vehicle: saline): 74 % of control
T/C (dose: 300.0 mg/kg/injection, schedule: Q04DX003 (sc), vehicle: saline): 61 % of control

CCSC(=O)N1c2ccc(OC)cc2C=CC1C#N (centres undefined)
T/C (dose: 600.0 mg/kg/injection, schedule: Q04DX003 (sc), vehicle: saline with Tween-80): 119 % of control
T/C (dose: 1200.0 mg/kg/injection, schedule: Q04DX003 (sc), vehicle: saline with Tween-80): 85 % of control
T/C (dose: 2400.0 mg/kg/injection, schedule: Q04DX003 (sc), vehicle: saline with Tween-80): 57 % of control
T/C (dose: 4800.0 mg/kg/injection, schedule: Q04DX003 (sc), vehicle: saline with Tween-80): 40 % of control

C/C(=N/NC(N)=S)c1ccc2ccccc2c1
T/C (dose: 25.0 mg/kg/injection, schedule: Q01DX010 (sc), vehicle: saline with Tween-80): 75 % of control
T/C (dose: 50.0 mg/kg/injection, schedule: Q01DX010 (sc), vehicle: saline with Tween-80): 81 % of control
T/C (dose: 100.0 mg/kg/injection, schedule: Q01DX010 (sc), vehicle: saline with Tween-80): 29 % of control

NC(=O)c1ncn(C2OC(CO)C(O)C2O)c1O (centres undefined)
T/C [3]: 73 % of control
T/C [1]: 95 % of control
T/C [2]: 98 % of control

O=S(=O)(O)O
T/C (dose: 75.0 mg/kg/injection, schedule: Q04DX003 (sc), vehicle: Klucel (hydroxypropylcellulose) (HPC)): 86 % of control
T/C (dose: 150.0 mg/kg/injection, schedule: Q04DX003 (sc), vehicle: Klucel (hydroxypropylcellulose) (HPC)): 94 % of control
T/C [3]: 85 % of control
